Results on nine compounds are retold here after US8357703B2, “Pyridines” (Hoffmann-La Roche Inc., priority 2009, dated 2013).

The structures appear in SMILES notation.

The test has as its target T1, human GABA A α5β3γ2 receptor (Homo sapiens, UniProt P18507+P31644).
T1 construct: expressed in transfected cells; host or cells: HEK293 (transiently transfected), membranes
The test is described as follows: [3H]flumazenil competition binding to HEK293 cells expressing human GABA A receptors. The note with it: competition for [3H]flumazenil (0.5 nM for α5); HEK293 cells expressing human (transiently transfected) receptors; means of two determinations; read-out: hKi GABA Aα5. As for the experimental part:
The affinity of compounds at GABA A receptor subtypes was measured by competition for [^3H]flumazenil (85 Ci/mmol; Roche) binding to HEK293 cells expressing rat (stably transfected) or human (transiently transfected) receptors of composition α1β3γ2, α2β3γ2, α3β3γ2 and α5β3γ2.
Cell pellets were suspended in Krebs-tris buffer (4.8 mM KCl, 1.2 mM CaCl2, 1.2 mM MgCl2, 120 mM NaCl, 15 mM Tris; pH 7.5; binding assay buffer), homogenized by polytron for ca. 20 sec on ice and centrifuged for 60 min at 4° C. (50000 g; Sorvall, rotor: SM24=20000 rpm). The cell pellets were resuspended in Krebs-tris buffer and homogenized by polytron for ca. 15 sec on ice. Protein was measured (Bradford method, Bio-Rad) and aliquots of 1 mL were prepared and stored at −80° C.
Radioligand binding assays were carried out in a volume of […] (96-well plates) which contained […] of cell membranes, [^3H]flumazenil at a concentration of 1 nM for α1, α2, α3 subunits and 0.5 nM for α5 subunits and the test compound in the range of […]. Nonspecific binding was defined by 10^−5 M diazepam and typically represented less than 5% of the total binding. Assays were incubated to equilibrium for 1 hour at 4° C. and harvested onto GF/C uni-filters (Packard) by filtration using a Packard harvester and washing with ice-cold wash buffer (50 mM Tris; pH 7.5). After drying, filter-retained radioactivity was detected by liquid scintillation counting. Ki values were calculated using Excel-Fit (Microsoft) and are the means of two determinations.
Representative test results, obtained by the above described assay measuring binding affinity to HEK293 cells expressing human (h) receptors, are shown in table 1 below.

For the compound `Cc1onc(C2CCCCC2)c1COc1ccc(C(=O)NC(C)(C)CO)cn1` [Example 35, 6-((3-Cyclohexyl-5-methyl-isoxazol-4-yl)methoxy)-N-(2-hydroxy-1,1-dimethyl-ethyl)-nicotinamide], the Ki turned out to be 20.3 nM.

Take `Cc1onc(N2CCCC2)c1COc1ccc(C(=O)NC(C)C)cn1` [Example 40, N-Isopropyl-6-((5-methyl-3-pyrrolidin-1-yl-isoxazol-4-yl)methoxy)-nicotinamide]: the Ki worked out at 4 nM.

On to `CCCc1noc(C)c1COc1ccc(C(=O)NC(C)C)cn1` [Example 1, N-Isopropyl-6-((5-methyl-3-propyl-isoxazol-4-yl)methoxy)-nicotinamide], for which the Ki was found to be 46 nM.

Consider `CCCCc1nocc1COc1ccc(C(=O)N[C@@H](C)CO)cn1` [Example 28, 6-((3-Butyl-isoxazol-4-yl)methoxy)-N—((S)-2-hydroxy-1-methyl-ethyl)-nicotinamide], for which the Ki amounted to 36.1 nM.

For `Cc1onc(OCC(C)C)c1COc1ccc(C(=O)NC(C)C)cn1` [Example 39, 6-((3-Isobutoxy-5-methyl-isoxazol-4-yl)methoxy)-N-isopropyl-nicotinamide], the Ki is 4.7 nM.

Consider `CCCC(C)c1noc(C)c1COc1ccc(C(=O)NC(C)C)cn1` (stereo not drawn) [Example 29, N-Isopropyl-6-[(5-methyl-3-(1-methyl-butyl)-isoxazol-4-yl)methoxyl]-nicotinamide], for which the Ki was 70.9 nM.

Consider `CCCCc1noc(C)c1COc1ccc(C(=O)NC(C)CO)cn1` (single isomer, unassigned; (+)) [Example 11, (+)-6-((3-Butyl-5-methyl-isoxazol-4-yl)methoxy)-N-(2-hydroxy-1-methyl-ethyl)-nicotinamide], for which the Ki worked out at 7.3 nM.

For `Cc1onc(C2CCCCC2)c1COc1ccc(C(=O)NC(C)C)cn1` [Example 31, 6-((3-Cyclohexyl-5-methyl-isoxazol-4-yl)methoxy)-N-isopropyl-nicotinamide], the Ki turned out to be 4.3 nM.

For `CCCCc1nocc1COc1ccc(C(=O)NC(C)C)cn1` [Example 25, 6-((3-Butyl-isoxazol-4-yl)methoxy)-N-isopropyl-nicotinamide], the Ki was 41.1 nM.
